Results published in ChEMBL document CHEMBL1681651, “A broad spectrum anticancer nucleoside with selective toxicity against human colon cells in vitro” (2011).

Columns and labels:
Format in all cases: functional
[1] = system: TK-10; test: Growth inhibition of human TK10 cells assessed as cell growth at 100 uM after 48 hrs by SRB assay; conditions: TK-10, 48 h, read-out: Activity
[2] = system: NCI-H226; test: Growth inhibition of human NCI-H226 cells assessed as cell growth at 0.1 uM after 48 hrs by SRB assay; conditions: NCI-H226, 48 h, read-out: Activity
[3] = system: MDA-MB-231; test: Growth inhibition of human MDA-MB-231 cells assessed as cell growth at 10 uM after 48 hrs by SRB assay; conditions: MDA-MB-231, 48 h, read-out: Activity
[4] = system: 786-0; test: Growth inhibition of human 786-0 cells assessed as cell growth at 0.1 uM after 48 hrs by SRB assay; conditions: 786-0, 48 h, read-out: Activity
[5] = system: HCT-116; test: Growth inhibition of human HCT116 cells assessed as cell growth at 1 uM after 48 hrs by SRB assay; conditions: HCT-116, 48 h, read-out: Activity
[6] = system: HCC 2998; test: Growth inhibition of human HCC2998 cells assessed as cell growth at 100 uM after 48 hrs by SRB assay; conditions: HCC 2998, 48 h, read-out: Activity
[7] = system: SNB-75; test: Growth inhibition of human SNB75 cells assessed as cell growth at 0.1 uM after 48 hrs by SRB assay; conditions: SNB-75, 48 h, read-out: Activity
[8] = system: T47D; test: Growth inhibition of human T47D cells after 48 hrs by […] growth inhibition assay
[9] = system: U-251; test: Growth inhibition of human U251 cells assessed as cell growth at 100 uM after 48 hrs by SRB assay; conditions: U-251, 48 h, read-out: Activity
[10] = system: OVCAR-5; test: Growth inhibition of human OVCAR5 cells after 48 hrs by […] growth inhibition assay; conditions: OVCAR-5, 48 h
[11] = system: NCI-H226; test: Growth inhibition of human NCI-H226 cells assessed as cell growth at 1 mM after 48 hrs by SRB assay; conditions: NCI-H226, 48 h, read-out: Activity
[12] = system: EKVX; test: Growth inhibition of human EKVX cells after 48 hrs by […] growth inhibition assay
[13] = system: HT-29; test: Growth inhibition of human HT-29 cells after 48 hrs by […] growth inhibition assay; conditions: HT-29, 48 h
[14] = system: COLO 205; test: Growth inhibition of human COLO205 cells assessed as cell growth at 1 uM after 48 hrs by SRB assay; conditions: COLO 205, 48 h, read-out: Activity
[15] = system: SF-295; test: Growth inhibition of human SF295 cells assessed as cell growth at 100 uM after 48 hrs by SRB assay; conditions: SF-295, 48 h, read-out: Activity
[16] = system: CAKI-1; test: Growth inhibition of human Caki1 cells assessed as cell growth at 1 mM after 48 hrs by SRB assay; conditions: CAKI-1, 48 h, read-out: Activity
[17] = system: NCI-H460; test: Growth inhibition of human NCI-H460 cells assessed as cell growth at 1 mM after 48 hrs by SRB assay; conditions: NCI-H460, 48 h, read-out: Activity
[18] = system: OVCAR-8; test: Growth inhibition of human OVCAR8 cells assessed as cell growth at 1 mM after 48 hrs by SRB assay; conditions: OVCAR-8, 48 h, read-out: Activity
[19] = system: ACHN; test: Growth inhibition of human ACHN cells assessed as cell growth at 100 uM after 48 hrs by SRB assay; conditions: read-out: Activity
[20] = system: HT-29; test: Growth inhibition of human HT-29 cells assessed as cell growth at 1 uM after 48 hrs by SRB assay; conditions: HT-29, 48 h, read-out: Activity
[21] = system: LOX IMVI; test: Growth inhibition of human LOXIMVI cells assessed as cell growth at 1 uM after 48 hrs by SRB assay; conditions: read-out: Activity
[22] = system: HOP-62; test: Growth inhibition of human HOP62 cells assessed as cell growth at 100 uM after 48 hrs by SRB assay; conditions: HOP-62, 48 h, read-out: Activity
[23] = system: RXF 393; test: Growth inhibition of human RXF393 cells assessed as cell growth at 1 mM after 48 hrs by SRB assay; conditions: RXF 393, 48 h, read-out: Activity
[24] = system: MDA-MB-231; test: Growth inhibition of human MDA-MB-231 cells assessed as cell growth at 1 mM after 48 hrs by SRB assay; conditions: MDA-MB-231, 48 h, read-out: Activity
[25] = system: EKVX; test: Growth inhibition of human EKVX cells assessed as cell growth at 1 uM after 48 hrs by SRB assay; conditions: read-out: Activity
[26] = system: SK-MEL-28; test: Growth inhibition of human SK-MEL-28 cells after 48 hrs by […] growth inhibition assay; conditions: SK-MEL-28, 48 h
[27] = system: CAKI-1; test: Growth inhibition of human Caki1 cells assessed as cell growth at 1 uM after 48 hrs by SRB assay; conditions: CAKI-1, 48 h, read-out: Activity
[28] = system: UACC-62; test: Growth inhibition of human UACC62 cells assessed as cell growth at 1 uM after 48 hrs by SRB assay; conditions: UACC-62, 48 h, read-out: Activity
[29] = system: ACHN; test: Growth inhibition of human ACHN cells assessed as cell growth at 1 uM after 48 hrs by SRB assay; conditions: read-out: Activity
[30] = system: CCRF-CEM; test: Growth inhibition of human CCRF-CEM cells assessed as cell growth at 10 uM after 48 hrs by SRB assay; conditions: read-out: Activity
[31] = system: OVCAR-5; test: Growth inhibition of human OVCAR5 cells assessed as cell growth at 100 uM after 48 hrs by SRB assay; conditions: OVCAR-5, 48 h, read-out: Activity
[32] = system: NCI-H522; test: Growth inhibition of human NCI-H522 cells assessed as cell growth at 10 uM after 48 hrs by SRB assay; conditions: NCI-H522, 48 h, read-out: Activity
[33] = system: KM12; test: Growth inhibition of human KM12 cells assessed as cell growth at 1 uM after 48 hrs by SRB assay; conditions: KM12, 48 h, read-out: Activity
[34] = system: A498; test: Growth inhibition of human A498 cells assessed as cell growth at 1 uM after 48 hrs by SRB assay; conditions: A498, 48 h, read-out: Activity
[35] = system: SNB-75; test: Growth inhibition of human SNB75 cells assessed as cell growth at 1 mM after 48 hrs by SRB assay; conditions: SNB-75, 48 h, read-out: Activity
[36] = read-out: LC50 (the source's name)
[37] = read-out: pLC50 (the source's name) (converted)

CNC(=O)NC[C@H]1O[C@@H](n2cnc3c(NC(=O)Nc4ccccc4)ncnc32)[C@H](O[Si](C)(C)C(C)(C)C)[C@@H]1CC(=O)N(C)OC
growth at 100 µM [1]: 65%
growth at 0.1 µM [2]: 103%
growth at 10 µM [3]: 94%
growth at 0.1 µM [4]: 95%
growth at 1 µM [5]: 90%
growth at 100 µM [6]: 66%
growth at 0.1 µM [7]: 94%
GI50 ([8]; read-out: GI50): 13.9 µM
CC50 [8, 36]: > 100 µM
TGI ([8]; read-out: TGI): > 100 µM
GI50 ([8]; read-out: pGI50 (converted)): 13.8 µM
CC50 [8, 37]: > 100 µM
TGI ([8]; read-out: pTGI (converted)): > 100 µM
growth at 100 µM [9]: 37%
GI50 ([10]; read-out: GI50): 38.2 µM
CC50 [10, 36]: > 100 µM
TGI ([10]; read-out: TGI): > 100 µM
GI50 ([10]; read-out: pGI50 (converted)): 38 µM
CC50 [10, 37]: > 100 µM
TGI ([10]; read-out: pTGI (converted)): > 100 µM
growth at 1000 µM [11]: 40%
GI50 ([12]; read-out: GI50): 26.4 µM
CC50 [12, 36]: > 100 µM
TGI ([12]; read-out: TGI): > 100 µM
GI50 ([12]; read-out: pGI50 (converted)): 26.3 µM
CC50 [12, 37]: > 100 µM
TGI ([12]; read-out: pTGI (converted)): > 100 µM
GI50 ([13]; read-out: GI50): 5.37 µM
CC50 [13, 36]: > 100 µM
TGI ([13]; read-out: TGI): > 100 µM
GI50 ([13]; read-out: pGI50 (converted)): 5.37 µM
CC50 [13, 37]: > 100 µM
TGI ([13]; read-out: pTGI (converted)): > 100 µM
growth at 1 µM [14]: 93%
growth at 100 µM [15]: 48%
growth at 1000 µM [16]: 47%
growth at 1000 µM [17]: 25%
growth at 1000 µM [18]: 22%
growth at 100 µM [19]: 55%
growth at 1 µM [20]: 107%
growth at 1 µM [21]: 96%
growth at 100 µM [22]: 64%
growth at 1000 µM [23]: -36%
growth at 1000 µM [24]: 5%
growth at 1 µM [25]: 95%
GI50 ([26]; read-out: GI50): 7.77 µM
CC50 [26, 36]: > 100 µM
TGI ([26]; read-out: TGI): > 100 µM
GI50 ([26]; read-out: pGI50 (converted)): 7.76 µM
CC50 [26, 37]: > 100 µM
TGI ([26]; read-out: pTGI (converted)): > 100 µM
growth at 1 µM [27]: 72%
growth at 1 µM [28]: 107%
growth at 1 µM [29]: 102%
growth at 10 µM [30]: 96%
growth at 100 µM [31]: 71%
growth at 10 µM [32]: 84%
growth at 1 µM [33]: 108%
growth at 1 µM [34]: 96%
growth at 1000 µM [35]: 12%
